Assay in all cases: KINOMEscan (ScanMAX) kinase profiling
Common to all, as to assay type: binding

Test [1] deals with T1, panel of 468 kinases (Homo sapiens, UniProt P00533, G719C).
T1 construct: purchased KINOMEscan (ScanMAX) service
Conditions: EGFR(G719C); 1 μM; read-out: % control.

Test [2] deals with T2, panel of 468 kinases (Homo sapiens, UniProt O75385).
T2 construct: purchased KINOMEscan (ScanMAX) service
T2 sequence (O75385 1-1050): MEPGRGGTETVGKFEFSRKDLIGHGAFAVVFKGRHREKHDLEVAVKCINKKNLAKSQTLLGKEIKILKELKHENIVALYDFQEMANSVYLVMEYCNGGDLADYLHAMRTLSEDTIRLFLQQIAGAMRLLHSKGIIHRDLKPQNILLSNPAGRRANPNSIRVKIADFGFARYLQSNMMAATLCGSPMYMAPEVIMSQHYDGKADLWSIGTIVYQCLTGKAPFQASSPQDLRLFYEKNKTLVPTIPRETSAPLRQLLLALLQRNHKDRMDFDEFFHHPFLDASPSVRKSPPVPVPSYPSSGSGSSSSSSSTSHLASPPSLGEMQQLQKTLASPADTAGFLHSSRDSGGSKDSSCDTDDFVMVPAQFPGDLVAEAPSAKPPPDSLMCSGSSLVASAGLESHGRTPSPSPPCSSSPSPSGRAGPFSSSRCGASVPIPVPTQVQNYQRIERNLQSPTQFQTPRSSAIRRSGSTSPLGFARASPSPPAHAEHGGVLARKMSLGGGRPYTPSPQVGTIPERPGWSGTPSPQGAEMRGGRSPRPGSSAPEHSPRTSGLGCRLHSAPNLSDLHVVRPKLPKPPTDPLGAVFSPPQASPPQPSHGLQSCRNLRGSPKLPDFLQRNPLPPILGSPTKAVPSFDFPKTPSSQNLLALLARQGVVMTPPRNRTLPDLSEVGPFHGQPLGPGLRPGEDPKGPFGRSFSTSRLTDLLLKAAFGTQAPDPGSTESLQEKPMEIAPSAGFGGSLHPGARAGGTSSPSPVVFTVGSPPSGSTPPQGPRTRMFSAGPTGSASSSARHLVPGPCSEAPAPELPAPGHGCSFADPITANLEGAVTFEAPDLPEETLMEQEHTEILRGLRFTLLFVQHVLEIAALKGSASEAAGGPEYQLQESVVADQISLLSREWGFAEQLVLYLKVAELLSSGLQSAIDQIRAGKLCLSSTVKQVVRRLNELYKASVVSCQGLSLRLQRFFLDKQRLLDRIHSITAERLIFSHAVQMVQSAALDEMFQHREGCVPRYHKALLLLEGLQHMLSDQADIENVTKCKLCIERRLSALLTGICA
Conditions: ULK1; 1 μM; read-out: % control.

Test [3] addresses T3, panel of 468 kinases (Homo sapiens, UniProt Q9H422).
T3 construct: purchased KINOMEscan (ScanMAX) service
Conditions: HIPK3; 1 μM; read-out: % control.

In test [4] the target is T4, panel of 468 kinases (Homo sapiens, UniProt O75747).
T4 construct: purchased KINOMEscan (ScanMAX) service
T4 sequence (O75747 1-1486): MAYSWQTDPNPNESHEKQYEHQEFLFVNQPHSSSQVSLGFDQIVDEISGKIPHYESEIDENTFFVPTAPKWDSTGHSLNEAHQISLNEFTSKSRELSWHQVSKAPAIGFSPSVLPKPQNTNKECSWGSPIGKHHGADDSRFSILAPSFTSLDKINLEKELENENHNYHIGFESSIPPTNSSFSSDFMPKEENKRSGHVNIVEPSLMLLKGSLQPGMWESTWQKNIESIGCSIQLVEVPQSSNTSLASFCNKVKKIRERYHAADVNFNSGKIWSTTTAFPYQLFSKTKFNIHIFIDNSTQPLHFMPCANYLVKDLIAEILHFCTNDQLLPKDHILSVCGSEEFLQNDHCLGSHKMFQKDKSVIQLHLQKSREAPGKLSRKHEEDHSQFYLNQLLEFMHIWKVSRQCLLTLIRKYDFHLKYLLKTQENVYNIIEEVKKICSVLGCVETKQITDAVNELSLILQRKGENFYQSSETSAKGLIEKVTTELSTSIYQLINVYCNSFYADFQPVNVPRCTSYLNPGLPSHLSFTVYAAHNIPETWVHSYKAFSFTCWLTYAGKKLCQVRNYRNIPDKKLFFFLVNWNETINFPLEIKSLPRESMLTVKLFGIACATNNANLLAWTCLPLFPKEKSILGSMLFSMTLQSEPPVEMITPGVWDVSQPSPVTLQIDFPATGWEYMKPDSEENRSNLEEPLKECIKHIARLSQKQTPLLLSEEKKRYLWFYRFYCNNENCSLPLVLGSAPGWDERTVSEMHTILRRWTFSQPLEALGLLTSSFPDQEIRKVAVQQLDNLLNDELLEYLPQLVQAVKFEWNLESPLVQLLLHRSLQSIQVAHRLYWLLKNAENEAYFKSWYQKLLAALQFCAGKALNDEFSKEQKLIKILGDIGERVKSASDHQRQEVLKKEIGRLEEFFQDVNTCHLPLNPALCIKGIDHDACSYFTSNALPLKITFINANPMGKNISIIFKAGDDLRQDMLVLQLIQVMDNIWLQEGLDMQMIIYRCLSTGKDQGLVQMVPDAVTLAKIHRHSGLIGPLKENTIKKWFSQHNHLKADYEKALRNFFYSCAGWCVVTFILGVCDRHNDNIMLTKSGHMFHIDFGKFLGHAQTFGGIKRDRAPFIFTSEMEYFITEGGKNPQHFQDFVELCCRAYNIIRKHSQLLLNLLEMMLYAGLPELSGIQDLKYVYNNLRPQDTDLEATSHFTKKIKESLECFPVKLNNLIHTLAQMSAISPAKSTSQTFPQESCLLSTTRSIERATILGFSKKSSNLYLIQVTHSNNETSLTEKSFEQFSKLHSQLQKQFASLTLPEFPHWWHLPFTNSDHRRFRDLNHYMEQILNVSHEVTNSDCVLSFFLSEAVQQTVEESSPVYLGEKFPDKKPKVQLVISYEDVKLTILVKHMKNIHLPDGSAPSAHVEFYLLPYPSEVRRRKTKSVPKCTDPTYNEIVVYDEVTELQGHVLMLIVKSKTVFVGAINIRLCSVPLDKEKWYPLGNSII
The note with it: PIK3C2G; 1 μM; read-out: % control.

SMILES strings stand for the structures.

T3 sequence (Q9H422 whole entry): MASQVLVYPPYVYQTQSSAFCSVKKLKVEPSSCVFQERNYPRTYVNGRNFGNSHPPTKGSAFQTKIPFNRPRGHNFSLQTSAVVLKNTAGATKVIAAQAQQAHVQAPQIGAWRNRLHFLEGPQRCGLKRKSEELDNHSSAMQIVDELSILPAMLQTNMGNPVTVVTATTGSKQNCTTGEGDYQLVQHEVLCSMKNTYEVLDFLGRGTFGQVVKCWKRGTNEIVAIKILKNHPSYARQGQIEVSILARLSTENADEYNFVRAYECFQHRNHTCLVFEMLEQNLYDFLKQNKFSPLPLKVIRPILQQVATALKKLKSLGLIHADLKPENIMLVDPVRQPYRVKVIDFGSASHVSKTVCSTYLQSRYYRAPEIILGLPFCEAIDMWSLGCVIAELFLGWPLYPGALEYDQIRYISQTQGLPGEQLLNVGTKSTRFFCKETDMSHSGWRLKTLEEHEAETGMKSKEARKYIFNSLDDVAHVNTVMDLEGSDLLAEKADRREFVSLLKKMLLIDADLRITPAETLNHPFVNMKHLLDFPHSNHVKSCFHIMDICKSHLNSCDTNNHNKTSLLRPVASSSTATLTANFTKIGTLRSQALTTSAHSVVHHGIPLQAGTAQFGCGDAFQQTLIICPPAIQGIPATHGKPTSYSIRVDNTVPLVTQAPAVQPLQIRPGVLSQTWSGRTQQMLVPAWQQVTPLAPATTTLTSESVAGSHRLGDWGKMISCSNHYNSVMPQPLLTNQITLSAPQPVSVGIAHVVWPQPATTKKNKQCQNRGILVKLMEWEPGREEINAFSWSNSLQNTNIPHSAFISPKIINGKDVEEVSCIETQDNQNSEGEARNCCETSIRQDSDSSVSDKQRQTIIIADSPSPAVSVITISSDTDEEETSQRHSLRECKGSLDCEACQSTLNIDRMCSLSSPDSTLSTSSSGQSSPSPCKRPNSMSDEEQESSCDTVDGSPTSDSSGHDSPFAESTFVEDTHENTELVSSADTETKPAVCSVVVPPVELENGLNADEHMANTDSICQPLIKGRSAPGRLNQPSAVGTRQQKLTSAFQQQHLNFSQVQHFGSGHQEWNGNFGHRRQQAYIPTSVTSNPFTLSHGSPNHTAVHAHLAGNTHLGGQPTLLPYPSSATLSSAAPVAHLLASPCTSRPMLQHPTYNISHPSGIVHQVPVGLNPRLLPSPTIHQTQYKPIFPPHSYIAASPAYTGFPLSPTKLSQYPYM
T1 sequence (P00533 25-1210 G719C): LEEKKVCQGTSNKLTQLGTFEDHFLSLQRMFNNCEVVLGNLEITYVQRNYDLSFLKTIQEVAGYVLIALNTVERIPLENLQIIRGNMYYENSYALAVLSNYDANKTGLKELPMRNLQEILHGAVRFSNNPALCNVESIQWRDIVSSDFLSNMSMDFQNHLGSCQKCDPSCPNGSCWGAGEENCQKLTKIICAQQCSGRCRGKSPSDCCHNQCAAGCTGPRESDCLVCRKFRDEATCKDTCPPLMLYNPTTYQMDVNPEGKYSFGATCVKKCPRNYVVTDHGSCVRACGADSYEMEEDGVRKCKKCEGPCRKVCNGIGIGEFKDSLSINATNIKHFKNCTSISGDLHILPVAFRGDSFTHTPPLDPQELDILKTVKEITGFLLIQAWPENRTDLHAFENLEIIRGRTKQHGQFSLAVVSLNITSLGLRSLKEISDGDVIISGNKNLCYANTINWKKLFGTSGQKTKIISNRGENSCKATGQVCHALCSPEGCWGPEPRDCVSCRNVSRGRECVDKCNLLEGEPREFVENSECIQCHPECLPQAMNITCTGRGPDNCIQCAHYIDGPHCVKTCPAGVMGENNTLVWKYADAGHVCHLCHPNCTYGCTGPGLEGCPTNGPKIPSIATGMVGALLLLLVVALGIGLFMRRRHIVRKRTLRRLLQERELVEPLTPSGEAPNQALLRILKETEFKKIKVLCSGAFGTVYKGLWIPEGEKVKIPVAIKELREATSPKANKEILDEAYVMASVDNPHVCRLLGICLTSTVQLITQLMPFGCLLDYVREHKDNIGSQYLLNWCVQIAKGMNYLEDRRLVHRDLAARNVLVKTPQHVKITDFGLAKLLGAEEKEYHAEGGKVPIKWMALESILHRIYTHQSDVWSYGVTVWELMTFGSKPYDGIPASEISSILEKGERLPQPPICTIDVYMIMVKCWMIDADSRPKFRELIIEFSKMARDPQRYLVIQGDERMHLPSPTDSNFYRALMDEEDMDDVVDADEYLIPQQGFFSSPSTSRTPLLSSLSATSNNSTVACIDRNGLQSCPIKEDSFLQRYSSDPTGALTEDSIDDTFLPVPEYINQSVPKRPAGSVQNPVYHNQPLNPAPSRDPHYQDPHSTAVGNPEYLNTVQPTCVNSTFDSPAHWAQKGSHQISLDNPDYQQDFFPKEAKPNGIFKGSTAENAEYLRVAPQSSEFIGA

Take `CNc1nc(Nc2ccc(S(=O)(=O)N3CCC(N4CCOCC4)CC3)cc2OC)nc2[nH]cc(Cl)c12` [Compound 12, 5-chloro-N2-(2-methoxy-4-((4-morpholinopiperidin-1-yl)sulfonyl)phenyl)-N4-methyl-7H-pyrrolo[2,3-d]pyrimidine-2,4-diamine]: the remaining binding at 1 µM on panel of 468 kinases [1] was determined as 97%; at panel of 468 kinases [2] it was 97%; at panel of 468 kinases [3] it was 72%; on panel of 468 kinases [4], 100%.

On to `CNc1nc(Nc2ccc(P3(=O)CCN(C4CCOCC4)CC3)cc2OC)nc2[nH]cc(Cl)c12` [Compound 77, 4-(4-((5-chloro-4-(methylamino)-7H-pyrrolo[2,3-d]pyrimidin-2-yl)amino)-3-methoxyphenyl)-1-(tetrahydro-2H-pyran-4-yl)-1,4-azaphosphinane 4-oxide], for which the remaining binding at 1 µM stood at 99% on panel of 468 kinases [1], 95% on panel of 468 kinases [2], 64% at panel of 468 kinases [3] and 93% on panel of 468 kinases [4].

Regarding `CNc1nc(Nc2ccc(C(=O)N3CCC(N4CCOCC4)CC3)c3c2OCO3)nc2[nH]cc(Cl)c12` [Compound 75, (7-((5-chloro-4-(methylamino)-7H-pyrrolo[2,3-d]pyrimidin-2-yl)amino)benzo[d][1,3]dioxol-4-yl)(4-morpholinopiperidin-1-yl)methanone], the remaining binding at 1 µM stood at 100% on panel of 468 kinases [1], 50% at panel of 468 kinases [2], 59% on panel of 468 kinases [3] and 100% at panel of 468 kinases [4].
